Measured values as given in article PMC12655351, “Synthesis and Anticancer Activity Evaluation of New 5-((5-Nitrofuran-2-yl)allylidene)-2-thioxo-4-thiazolidinones” (Pharmaceuticals, 2025).
Structures can show the parent of a compound that is named as a salt. Where two headings read alike, the source gives them in different places.

Tests used:
AGS = assay: MTT assay; type: cell-based; conditions: Homo sapiens, 24 h of treatment
Method: (§1) The NCI-60 screening protocol utilizes the sulforhodamine B (SRB) assay following 48 h of compound exposure. […] The MTT assay was performed on eleven cancer cell lines: human breast cancer (MDA-MB-231, MCF-7, HCC 1954), human gastric cancer (AGS), human colorectal adenocarcinoma (HT-29, DLD-1, HCT 116), human neuroblastoma (SH SY5Y), and human leukemia (JURKAT, RMPI 8866, K-562) cell lines. The study was conducted in triplicate at the following seven concentrations: 0.62, 1.25, 2.5, 5, 10, 20, and 40 μM.
(§2) The selected cell lines were seeded into 96-well plates and cultured in accordance with the previously described methodology. Then, the cells were treated with all tested compounds and DOX at concentrations of 0.625, 1.25, 2.5, 5.0, 10.0, 20.0, and 40.0 μM for 24 h. A solution of 3-(4,5-dimethyl-2-thiazolyl)-2,5-diphenyl-2H-tetrazolium bromide (Sigma-Aldrich, St. Louis, MO, USA) in phosphate-buffered saline without calcium and magnesium (Corning, Kennebunk, ME, USA) at a concentration of 5 mg/mL was used to carry out MTT assay. After incubation, 20 μL of the prepared MTT solution was added, and then the cells were incubated at 37 °C for two hours. Afterwards, the cells were lysed using 100 μL of lysing buffer (comprising 25 mM HCl, 2% acetic acid, 3% DMF, and 5% SDS, with a pH of 4.7). The absorbance was determined at a wavelength of 570 nm using an Absorbance 96 microplate reader (Byonoy GmbH, Hamburg, Germany).

DLD-1 = assay: MTT assay; type: cell-based; conditions: Homo sapiens; DLD-1, 24 h of treatment
Method: as §1, §2

HCC-1954 = assay: MTT assay; type: cell-based; conditions: Homo sapiens, HCC1954; HCC-1954, 24 h of treatment
Method: as §1, §2

HCT-116 = assay: MTT assay; type: cell-based; conditions: Homo sapiens; HCT-116, 24 h of treatment
Method: as §1, §2

HT-29 = assay: MTT assay; type: cell-based; conditions: Homo sapiens; HT-29, 24 h of treatment
Method: as §1, §2

Jurkat = assay: MTT assay; type: cell-based; conditions: Homo sapiens, 24 h of treatment
Method: as §1, §2

K562 = assay: MTT assay; type: cell-based; conditions: Homo sapiens; K562, 24 h of treatment
Method: as §1, §2

MCF-7 [1] = assay: MTT assay; type: cell-based; conditions: Homo sapiens, MCF7; MCF-7, 24 h of treatment
Method: as §1, §2

MDA-MB-231 [2] = assay: MTT assay; type: cell-based; conditions: Homo sapiens; MDA-MB-231, 24 h of treatment
Method: as §1, §2

RPMI 8866 = assay: MTT assay; type: cell-based; conditions: Homo sapiens; RPMI 8866, 24 h of treatment
Method: as §1, §2

SH SY5Y = assay: MTT assay; type: cell-based; conditions: Homo sapiens, 24 h of treatment
Method: as §1, §2

MCF-7 [3] = assay: [3H]-thymidine incorporation assay; type: cell-based; conditions: Homo sapiens, MCF7; MCF-7, 24 h of treatment
Method: (§3) Another method of assessing the cytotoxic effects of tested compounds, [^3H]-thymidine incorporation assay, was applied. This method provided the capability to analyze the antiproliferative activity of novel structures on MCF-7 and MDA-MB-231 through their ability to incorporate thymidine into the cells. The acquired results further confirmed the potent activity of the 14b compound as the most prominent structure among the novel compounds (Table 2). The test was carried out in triplicate at concentrations of 5, 15, and 30 μM for the MDA-MB-231 cell line and 1, 5, and 10 μM for the MCF-7 cell line.
(§4) Following the selection of cell lines for further study, the effects of all compounds on cell proliferation were evaluated on MCF-7 and MDA-MB-231 cell lines. Cells were seeded in 24-well plates and cultured as described above. Cells were treated with the compounds at concentrations 1, 5, and 10 μM, and 5, 15, and 30 μM for MCF-7 and MDA-MB-231 cell lines, respectively, for 24 h. Subsequently, 0.5 μCi [^3H]-thymidine was added for 4 h at 37 °C. Then, plates with cells were placed on the ice, the liquid was aspirated, and cells were washed twice with 1mL of 0.05 M Tris-HCl buffer comprising 0.11 M NaCl and precipitated by adding 1 mL per well of 5% trichloroacetic. After precipitation, the cells were dissolved with 1 mL of 0.1 M NaOH with 1% SDS (Sigma-Aldrich, St. Louis, MO, USA) at room temperature (RT). The cell lysates were transferred into scintillation vials containing 2 mL of scintillation fluid (Ultima Gold™ XR, PerkinElmer, MA, USA), and cell-associated radioactivity was measured using a Scintillation Counter 1900 TR, TRI-CARB (Packard, Perkin Elmer, Inc., San Jose, CA, USA). The [^3H]-thymidine uptake was expressed as a percentage of the control value.

MDA-MB-231 [4] = assay: [3H]-thymidine incorporation assay; type: cell-based; conditions: Homo sapiens; MDA-MB-231, 24 h of treatment
Method: as §3, §4

[5] = test system: reactive oxygen species in MCF-7 cells; assay: H2DCFDA and DAPI double staining; type: cell-based, human; conditions: MCF-7, 1 and 5 μM, one hour
Method: (§5) The double staining method was applied to analyze novel compounds’ effects on the generation of reactive oxygen species. The first dye, H2DCFDA, after conversion to DCF, serves as an indicator of oxidative stress (green fluorescence), while the second one, known as DAPI, was applied to showcase nuclear genetic material of MCF-7 and MDA-MB-231 breast cancer cells (blue fluorescence). The concentrations of compounds were 1 and 5 μM for the MCF-7 cell line and 5 and 10 μM for the MDA-MB-231 cell line. The incubation time after treatment was one hour in both cell lines.
(§6) The influences of 2b, 12b, 14b, and doxorubicin (1 and 5 µM and 5 and 10 µM for MCF-7 and MDA-MB-231 cell lines, respectively) on the generation of reactive oxygen species (ROS) were analyzed. Cells were seeded in 6-well culture plates at 1 × 10^5 cells per well in 1 mL of medium and then treated with compounds for 1 h and then washed with PBS. Double staining was conducted with 20 µM 2′,7′-dichlorodihydrofluorescein diacetate (H2DCFDA) reagent (Thermo Fisher Scientific, Eugene, OR, USA), which is colorless, and is cleaved by intracellular esterases and oxidized to the highly fluorescent 2′,7′-dichlorofluorescein (DCF), and 10 µg/mL of the fluorescent dye 4′,6-diamidino-2-phenylindole (DAPI) (Sigma-Aldrich, St. Louis, MO, USA), which visualizes the nuclear DNA of cells. A Nikon ECLIPSE Ti fluorescence microscope (Nikon, Tokyo, Japan) was used to obtain results which were analyzed using ImageJ software 1.54k (Bethesda, MD, USA). The fluorescence intensity of the DCF reagent was evaluated relative to the control. The number of analyzed cells was above 100.

[6] = test system: reactive oxygen species in MDA-MB-231 cells; assay: H2DCFDA and DAPI double staining; type: cell-based, human; conditions: MDA-MB-231, 5 and 10 μM, one hour
Method: as §5, §6

MCF-7 [7] = conditions: cited from earlier work
MDA-MB-231 [8] = conditions: cited from earlier work

Structure (SMILES)	IC50 (AGS) [µM]	IC50 (DLD-1) [µM]	IC50 (HCC-1954) [µM]	IC50 (HCT-116) [µM]	IC50 (HT-29) [µM]	IC50 (Jurkat) [µM]	IC50 (K562) [µM]	IC50 (MCF-7 [1]) [µM]	IC50 (MDA-MB-231 [2]) [µM]	IC50 (MCF-7 [3]) [µM]	IC50 (MDA-MB-231 [4]) [µM]	IC50 (RPMI 8866) [µM]	IC50 (SH SY5Y) [µM]	generation of reactive oxygen species [5]	generation of reactive oxygen species [6]	IC50 (MCF-7 [7]; MCF-7 ref 4, read-out: IC50) [µM]	IC50 (MDA-MB-231 [8]; MDA-MB-231 ref 4, read-out: IC50) [µM]	IC50 (MCF-7 [7]; MCF-7 ref 39, read-out: concentration required to inhibit more than 50%) [µM]	IC50 (MDA-MB-231 [8]; MDA-MB-231 ref 39, read-out: concentration required to inhibit more than 50%) [µM]
O=C(O)CCCCCCCCCCN1C(=O)/C(=C/C=C/c2ccc([N+](=O)[O-])o2)SC1=S [15b, 11-((Z)-5-((E)-3-(5-nitrofuran-2-yl)allylidene)-4-oxo-2-thioxothiazolidin-3-yl)undecanoic acid]	1.71	1.76	6.23	10.5	9.61	1.41	15.5	4.05	> 40	3.13	> 30	11	3.76	–	–	–	–	–	–
O=C(O)CN1C(=O)/C(=C/C=C/c2ccc([N+](=O)[O-])o2)SC1=S [1b, 2-((Z)-5-((E)-3-(5-Nitrofuran-2-yl)allylidene)-4-oxo-2-thioxothiazolidin-3-yl)acetic acid]	36.2	28.8	25.3	> 40	22.3	1.76	> 40	> 40	> 40	> 10	> 30	> 40	> 40	–	–	–	–	–	–
CC(C)C(C(=O)O)N1C(=O)/C(=C/C(Cl)=C/c2ccc([N+](=O)[O-])cc2)SC1=S (centres unmarked) [substructure B, 2-{5-[(Z,2Z)-2-Chloro-3-(4-nitrophenyl)-2-propenylidene]-4-oxo-2-thioxothiazolidin-3-yl}-3-methylbutanoic Acid]	–	–	–	–	–	–	–	–	–	–	–	–	–	–	–	5.02	15.2	–	–
N.N.[Cl][Pt][Cl] [cisplatin]	–	–	–	–	–	–	–	–	–	–	–	–	–	–	–	–	–	~80	~80

The next lines start with results.

IC50 (AGS) [µM]	IC50 (DLD-1) [µM]	IC50 (HCC-1954) [µM]	IC50 (HCT-116) [µM]	IC50 (HT-29) [µM]	IC50 (Jurkat) [µM]	IC50 (K562) [µM]	IC50 (MCF-7 [1]) [µM]	IC50 (MDA-MB-231 [2]) [µM]	IC50 (MCF-7 [3]) [µM]	IC50 (MDA-MB-231 [4]) [µM]	Structure (SMILES)	IC50 (RPMI 8866) [µM]	IC50 (SH SY5Y) [µM]	generation of reactive oxygen species [5]	generation of reactive oxygen species [6]	IC50 (MCF-7 [7]; MCF-7 ref 4, read-out: IC50) [µM]	IC50 (MDA-MB-231 [8]; MDA-MB-231 ref 4, read-out: IC50) [µM]	IC50 (MCF-7 [7]; MCF-7 ref 39, read-out: concentration required to inhibit more than 50%) [µM]	IC50 (MDA-MB-231 [8]; MDA-MB-231 ref 39, read-out: concentration required to inhibit more than 50%) [µM]
1.09	2.83	3.14	16.8	0.73	0.72	0.43	0.73	7.53	1.78	0.36	COc1cccc2c1C(=O)c1c(O)c3c(c(O)c1C2=O)C[C@@](O)(C(=O)CO)C[C@@H]3O[C@H]1C[C@H](N)[C@H](O)[C@H](C)O1 [DOX, Doxorubicin hydrochloride, reference compound]	0.38	39.9	fewer effects on reactive oxygen species generation	fewer effects on reactive oxygen species generation	–	–	–	–
30.6	20.3	> 40	36.1	> 40	17.1	> 40	33.1	> 40	> 10	> 30	O=C(O)C(Cc1ccc(O)cc1)N1C(=O)/C(=C/C=C/c2ccc([N+](=O)[O-])o2)SC1=S (centres unmarked) [11b, 3-(4-Hydroxyphenyl)-2-((Z)-5-((E)-3-(5-nitrofuran-2-yl)allylidene)-4-oxo-2-thioxothiazolidin-3-yl)propanoic acid]	27.8	> 40	–	–	–	–	–	–
8.57	9.29	19.1	13.5	28.6	6.7	25.5	9.23	22.9	7.87	5.99	O=C(O)C(Cc1ccccc1)N1C(=O)/C(=C/C=C/c2ccc([N+](=O)[O-])o2)SC1=S (centres unmarked) [10b, 2-((Z)-5-((E)-3-(5-Nitrofuran-2-yl)allylidene)-4-oxo-2-thioxothiazolidin-3-yl)-3-phenylpropanoic acid]	16.5	18.9	–	–	–	–	–	–
3.38	3.68	4.9	4.15	8.04	3.19	7.35	2.38	8.34	2.21	1.84	CCC(C)C(C(=O)O)N1C(=O)/C(=C/C=C/c2ccc([N+](=O)[O-])o2)SC1=S (centres unmarked) [8b, 3-Methyl-2-((Z)-5-((E)-3-(5-nitrofuran-2-yl)allylidene)-4-oxo-2-thioxothiazolidin-3-yl)pentanoic acid]	14.2	6.6	–	–	–	–	–	–
6.53	8.03	17.6	14.7	30.4	14.2	25.8	7.74	18.5	7.79	2.65	CCC(C(=O)O)N1C(=O)/C(=C/C=C/c2ccc([N+](=O)[O-])o2)SC1=S (centres unmarked) [3b, 2-((Z)-5-((E)-3-(5-Nitrofuran-2-yl)allylidene)-4-oxo-2-thioxothiazolidin-3-yl)butanoic acid]	35.2	28.5	–	–	–	–	–	–
5.55	7.67	6.28	7.98	13.6	7.72	18.5	7.13	16.7	6.69	2.19	CC(C)CC(C(=O)O)N1C(=O)/C(=C/C=C/c2ccc([N+](=O)[O-])o2)SC1=S (centres unmarked) [7b, 4-Methyl-2-((Z)-5-((E)-3-(5-nitrofuran-2-yl)allylidene)-4-oxo-2-thioxothiazolidin-3-yl)pentanoic acid]	16.8	15.6	–	–	–	–	–	–
